Measurements: patent EP0054593A1, “Myocardium protecting pyrrole derivatives with anti-arythmic and anti-platelet aggregation activity, process for their preparation and medicines containing them” (SANOFI S.A., priority 1980, dated 1982)
Like-named read-outs stand apart in the source and are kept apart here.

Experiments:
[1] = test system: agrégation plaquettaire induite par le collagène; experiment: In vitro collagen-induced platelet aggregation in platelet-rich plasma (Born turbidimetric technique); assay type: cell-based, humain; details: for inhibition at 100 µM: concentration 100 µM, inhibition of maximal aggregation amplitude versus control, read-out: % d'inhibition; for IC50: 10 min
Source text: (§1) Les études in vitro et ex vivo de l'activité antiagrégante ont été réalisées selon la technique turbidiurétrique de Born.
Les études in vitro ont été réalisées sur du plasma riche en plaquettes (PRP) préparé à partir de sang veineux humain.
Les diverses solutions des produits à tester ont été préparées extemporanément. Les CM 7753, 7611, 7640, 7921, 7954, - 40018, 40020 ont été dissous à une concentration de 2 x 10^-2 M dans l'acétone.
Des solutions aqueuses à 2 x 10 ^-3 M ont été préparées pour les CM 40169, 40178, 2 µl des solutions acétoniques des produits ou 40 µl des solutions aqueuses sont incubés pendant 10 min à 37°C avec, respectivement, 388 et 350 µl de PRP. Après cette période d'incubation, 10 µl de la solution de collagène à 40 µg/ml sont additionnés. Pour les contrôles, 2 µl d'acétone ou 40 µl d'eau distillée sont utilisés.
(§2) L'agrégation plaquettaire a été quantifiée par la détermination graphique de l'amplitude maximale d'agrégation (AM).
(§3) Les résultats sont exprimés en % d'inhibition de ce paramètre calculé par rapport au contrôle (100 % d'agrégation). Résultats

[2] = test system: tachycardie ventriculaire; experiment: Ventricular arrhythmia model: coronary metal coil, myocardial infarction, telemetered ECG; assay type: in vivo, chiens; details: 50 mg/kg P.O., dogs; for Effet sur la tachycardie ventriculaire: rythme sinusal ou amélioration: sinus rhythm restored or improvement of the ratio of abnormal to sinus complexes
Source text: Le pouvoir antiarythmique de ces molécules a été apprécié sur un modèle animal d'arythmie ventriculaire.
Des chiens bâtards sont anesthésiés puis soumis à la mise en place, par cathétérisme rétrograde, d'une spire métallique dans le lit coronarien. Dans le même temps, un micro-émetteur modulateur de fréquence est fixé au dos de l'animal et relié à deux électrodes précordiales.
L'animal remis dans son box accuse alors une thrombose progressive de l'artère interventriculaire antérieure. Ainsi, se constitue un infarctus myocardique localisé et transmural, générateur d'une activité électrique anormale, mais répétitive : tachycardie ventriculaire.
Dans cet état, les drogues sont administrées per os (P.O.) et le système télémétré permet de suivre en temps réel l'évolution de la disrythmie.
Un comptage des complexes systoliques sinusaux et pathologies est assuré en permanence par des procédés électroniques.
Ainsi, peut-on quantifier la qualité et la durée d'action du produit.
L'activité des produits essayés sur la tachycardie ventriculaire est exprimée soit par le rétablissement du rythme sinusal, soit par une amélioration notable du rapport : • nombre de complexes anormaux
nombre de complexes sinusaux

ADP = experiment: Ex vivo ADP-induced platelet aggregation after oral dosing (Born technique); assay type: in vivo, babouin; details: baboons, 50 mg/kg/j oral
Experimental: as §1
(§4) Les études ex vivo chez le babouin ont porté uniquement sur l'activité antiagrégante du CM 7753. Dans ce cas, le CM 7753 est administré par voie buccale à raison de 50 mg/kg/j pendant une période de 5 jours.
(§5) Les prélèvements sanguins pour l'analyse de l'agrégation plaquettaire ont été effectués avant l'administration du produit, 2 h après l'administration de 50 mg/kg au jour 1 et 2 h après la dernière administration au jour 5.
as §2, §3

[3] = test system: agrégation plaquettaire induite par le collagène; experiment: Ex vivo collagen-induced platelet aggregation after oral dosing (Born technique); assay type: in vivo, babouin; details: Papio, 120 h, four baboons, 50 mg/kg/j oral, after 5 days of treatment, read-out: % d'inhibition
Experimental: as §1, §4, §5, §2, §3

Structure (SMILES) | inhibition at 100 µM ([1]; human PRP, collagen) [%] | Effet sur la tachycardie ventriculaire: rythme sinusal ou amélioration [2] | further results
CCc1ccc(CC)n1C(CCN(C(C)C)C(C)C)C(N)=O (stereo not drawn) [CM 40020] | 20 to 30 | – | –
Cc1ccc(C)n1C(CCN(C(C)C)C(C)C)(C(N)=O)c1ccccc1 (stereo not drawn) [CM 7640] | – | Rythme sinusal ou amélioration à 90 % durant 90 min | IC50 [1]: ~30 µM; Effet sur la tachycardie ventriculaire: duration of effect [2]: Rythme sinusal ou amélioration à 90 % durant 90 min
CC(C)N(CCC(C(N)=O)(c1ccccn1)n1cccc1)C(C)C (stereo not drawn) [CM 7954, (Pyridyl-2)-2 (pyrrolyl-l)-2 diisopropylamino-4 butyramide] | – | – | IC50 ([1]; read-out: concentration qui inhibe à 50 % l'agrégation plaquettaire): ~100 µM
Cc1ccc(C)n1C(CCN1CCN2CCCC2C1)C(N)=O (stereo not drawn) [CM 40018, (Diméthyl-2,5 pyrrolyl)-1 (diaza-1,4 bicyclo[4.3.0]-nonyl-4)-4 butyramide] | 20 to 30 | – | –
Cc1ccc(C)n1C(CCN(C(C)C)C1CCCCC1)C(N)=O (stereo not drawn) [CM 40169] | 20 to 30 | – | –
Cc1ccc(C)n1C(CCN(C(C)C)C(C)C)C(N)=O (stereo not drawn) [CM 7753, (Diméthyl-2,5 pyrrolyl-1)-2 diisopropylamino-4 butyramide] | – | 90% | activité antiagrégante vis-à-vis de l'ADP (ADP): activité antiagrégante de moindre importance; IC50 ([1]; human PRP, 10 min incubation at 37°C, collagen, approximate value, read-out: concentration qui inhibe à 50 % l'agrégation plaquettaire): ~100 µM; inhibition at 50 mg/kg [3]: 100%
CCC(C)N(CCC(C(N)=O)n1c(C)ccc1C)C(C)CC (stereo not drawn) [CM 40178] | 20 to 30 | – | –
CC(C)N(CCC(C(N)=O)n1cccc1)C(C)C (stereo not drawn) [CM 7921] | 20 to 30 | – | –
CC(C)N(CCC(C(N)=O)(c1ccccc1)n1cccc1)C(C)C (stereo not drawn) [CM 7611, Phényl-2 (pyrrolyl-l)-2 diisopropylamino-4 butyramide] | – | 70-90% | IC50 [1]: ~30 µM
